Literature values in article PMC7395068, “The evolution of strategies to minimise the risk of human drug-induced liver injury (DILI) in drug discovery and development” (Archives of Toxicology, 2020).
Read-outs that look alike come from different tables or passages of the source.

Assays:
human hepatocytes = conditions: In vitro Assay; ref Xu 2008; cited from earlier work
PHH spheroids = conditions: In vitro Assay; ref Vorrink 2018; cited from earlier work
[1] = cited from earlier work
HepG2 cells [2] = conditions: cited from earlier work
HepG2 cells [3] = conditions: In vitro Assay; ref Persson 2013; cited from earlier work
PHH = conditions: cited from earlier work
hLiMTs = conditions: cited from earlier work
rBsep = conditions: cited from earlier work
[4] = ref Chen 2016; cited from earlier work
[5] = tested on: isolated mouse liver mitochondria; conditions: In vitro Assay; ref Porceddu 2012; cited from earlier work
[6] = In vitro Assay, ref O'Brien 2006
[7] = In vitro Assay, ref Proctor 2017
[8] = In vitro Assay, ref Dawson 2012

## N[C@@H](Cc1ccc(O)c(O)c1)C(=O)O [levodopa]
Human hepatocytes
  Structural based (HCI): -VE
PHH spheroids
  hLiMTs ATP <20 x Cmax: -VE

## NCCCC[C@H](N[C@@H](CCc1ccccc1)C(=O)O)C(=O)N1CCC[C@H]1C(=O)O [lisinopril]
Human hepatocytes
  Structural based (HCI): -VE
PHH spheroids
  hLiMTs ATP <20 x Cmax: +VE (IC20 < 20 × Cmax.tot cut-off)

## Clc1ccc(COC(Cn2ccnc2)c2ccc(Cl)cc2Cl)c(Cl)c1 (centres unmarked) [miconazole]
Human hepatocytes
  Structural based (HCI): -VE
PHH spheroids
  hLiMTs ATP <20 x Cmax: -VE

## CCc1c(C)[nH]c2c1C(=O)C(CN1CCOCC1)CC2 (centres unmarked) [molindone]
Human hepatocytes
  Structural based (HCI): -VE
PHH spheroids
  hLiMTs ATP <20 x Cmax: -VE
[1]; ref Vorrink 2018
  In vivo DILI: +VE
[1]; ref Xu 2008
  In vivo DILI: +VE

## COc1ccc2cc([C@H](C)C(=O)O)ccc2c1 [naproxen]
HepG2 cells [2]; [6]
  Structural based (HCI): -VE
HepG2 cells [3]
  Cluser analysis: -VE
  Structural based (HCI): -VE
PHH; [7]
  PHH ATP <100uM: -VE
hLiMTs; [7]
  hLiMTs ATP <100uM: -VE

## COC(=O)C1=C(C)NC(C)=C(C(=O)OC)C1c1ccccc1[N+](=O)[O-] [nifedipine]
rBsep
  Inhibition of rBsep cutoff<3: +VE

## COCCOC(=O)C1=C(C)NC(C)=C(C(=O)OC(C)C)C1c1cccc([N+](=O)[O-])c1 (centres unmarked) [nimodipine]
Human hepatocytes
  Structural based (HCI): +VE
PHH spheroids
  hLiMTs ATP <20 x Cmax: +VE (IC20 < 20 × Cmax.tot cut-off)

## [H]/N=C(/N)N/C(=N/[H])NCCc1ccccc1 [phenformin]
HepG2 cells [2]; [6]
  Structural based (HCI): +VE (lowest HCI endpoint IC50 (or in the absence of dose–response < 100 µM) < 30 × total human plasma exposure levels (Cmax.tot))
PHH; [7]
  PHH ATP <100uM: +VE (IC50 threshold of 100 µM)
hLiMTs; [7]
  hLiMTs ATP <100uM: +VE (IC50 threshold of 100 µM)
[1]; ref O'Brien 2006
  In vivo DILI: -VE
[1]; ref Proctor 2017
  In vivo DILI: +VE

## CC(C)NCC(O)COc1cccc2[nH]ccc12 (centres unmarked) [pindolol]
[4]
  DILI +VE (5-8), DILI -VE (-4): -VE
  DILI severity category: vNo-DILI-Concern
PHH spheroids
  hLiMTs ATP <20 x Cmax: -VE
[1]; ref Vorrink 2018
  In vivo DILI: -VE
[1]; ref Xu 2008
  In vivo DILI: -VE

## O=C(C1CCCCC1)N1CC(=O)N2CCc3ccccc3C2C1 (centres unmarked) [praziquantel]
HepG2 cells [2]; [6]
  Structural based (HCI): +VE
rBsep; [8]
  Inhibition of rBsep cutoff<1& cmax u>.2: -VE
  Inhibition of rBsep cutoff<3: +VE

## CCN(CC)CCCC(C)Nc1c2ccc(Cl)cc2nc2ccc(OC)cc12 (centres unmarked) [quinacrine]
HepG2 cells [2]
  Structural based (HCI): +VE (key: +VE: lowest HCI endpoint IC50 (or in the absence of dose–response < 100 µM) < 30 × total human plasma exposure levels (Cmax.tot))
PHH
  PHH ATP <100uM: +VE (key: +VE: IC50 threshold of 100 µM)
hLiMTs
  hLiMTs ATP <100uM: +VE (key: +VE: IC50 threshold of 100 µM)
[1]; in vivo
  In vivo DILI: +VE

## CC(C)c1nc(N(C)S(C)(=O)=O)nc(-c2ccc(F)cc2)c1/C=C/[C@@H](O)C[C@@H](O)CC(=O)O [rosuvastatin]
[4]
  DILI +VE (5-8), DILI -VE (-4): +VE
  DILI severity category: vLess-DILI-Concern
HepG2 cells [2]; [6]
  Structural based (HCI): +VE (lowest HCI endpoint IC50 (or in the absence of dose–response < 100 µM) < 30 × total human plasma exposure levels (Cmax.tot))
PHH; [7]
  PHH ATP <100uM: +VE (IC50 threshold of 100 µM)
hLiMTs; [7]
  hLiMTs ATP <100uM: +VE (IC50 threshold of 100 µM)
[1]; ref O'Brien 2006
  In vivo DILI: +VE
[1]; ref Proctor 2017
  In vivo DILI: +VE

## CN[C@@H]1[C@H](O)[C@H](NC)[C@H]2O[C@@]3(O)C(=O)C[C@@H](C)O[C@H]3O[C@@H]2[C@H]1O [spectinomycin]
[4]
  DILI +VE (5-8), DILI -VE (-4): -VE
  DILI severity category: Ambiguous DILI-concern
PHH; [7]
  PHH ATP <100uM: -VE
hLiMTs; [7]
  hLiMTs ATP <100uM: -VE
[1]; ref Porceddu 2012
  In vivo DILI: +VE
[1]; ref Proctor 2017
  In vivo DILI: +VE
[5]
  in vitro data EC2<=1x Cmax: +VE
  in vitro data EC20<=2uM: +VE

## O=C(O)c1cc(/N=N/c2ccc(S(=O)(=O)Nc3ccccn3)cc2)ccc1O [sulfasalazine]
Human hepatocytes
  Structural based (HCI): +VE
PHH spheroids
  hLiMTs ATP <20 x Cmax: +VE (IC20 < 20 × Cmax.tot cut-off)

## CC(C)(C)c1ccc(C(O)CCCN2CCC(C(O)(c3ccccc3)c3ccccc3)CC2)cc1 (centres unmarked) [terfenadine]
PHH spheroids
  hLiMTs ATP <20 x Cmax: -VE
